Experimental data as given in PubChem BioAssay AID248 (DTP/NCI, 2004).
Several values for one entry are separate records, joined by “and”; a condition that tells them apart may be missing. Equal entries are not always repeated. Toxic doses and inconclusive results are not listed.

System: L1210 leukemia ip in BDF1 mice, survival T/C
Assay: NCI In Vivo Anticancer Drug Screen. Data for tumor model L1210 Leukemia (intraperitoneal) in B6D2F1 (BDF1) mice
Conditions: higher = longer survival
Outline: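 Value reflects the ratio of survival in compound-treated mice to survival in vehicle-treated controls, with both groups carrying the same transplanted tumor.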

[1] = endpoint: mean survival time, dose: 400.0 mg/kg/injection, schedule: Q01DX009 (ip), vehicle: saline
[2] = endpoint: mean survival time, dose: 100.0 mg/kg/injection, schedule: Q04DX003 (ip), vehicle: saline with Tween-80
[3] = endpoint: mean survival time, dose: 200.0 mg/kg/injection, schedule: Q04DX003 (ip), vehicle: saline with Tween-80
[4] = endpoint: mean survival time, dose: 400.0 mg/kg/injection, schedule: Q04DX003 (ip), vehicle: saline with Tween-80
[5] = endpoint: mean survival time, dose: 100.0 mg/kg/injection, schedule: Q01DX009 (ip), vehicle: Klucel (hydroxypropylcellulose) (HPC)
[6] = endpoint: mean survival time, dose: 100.0 mg/kg/injection, schedule: Q04DX003 (ip), vehicle: Klucel (hydroxypropylcellulose) (HPC)
[7] = endpoint: mean survival time, dose: 200.0 mg/kg/injection, schedule: Q01DX009 (ip), vehicle: Klucel (hydroxypropylcellulose) (HPC)
[8] = endpoint: mean survival time, dose: 200.0 mg/kg/injection, schedule: Q04DX003 (ip), vehicle: Klucel (hydroxypropylcellulose) (HPC)
[9] = endpoint: mean survival time, dose: 400.0 mg/kg/injection, schedule: Q04DX003 (ip), vehicle: Klucel (hydroxypropylcellulose) (HPC)
[10] = endpoint: mean survival time, dose: 100.0 mg/kg/injection, schedule: Q01DX001 (ip), vehicle: saline with Tween-80

Clc1ncnc2c1ncn2C1CCCO1 (centres undefined)
T/C (endpoint: mean survival time, dose: 100.0 mg/kg/injection, schedule: Q01DX001 (ip), vehicle: saline): 97 % of control
T/C (endpoint: mean survival time, dose: 178.0 mg/kg/injection, schedule: Q01DX009 (ip), vehicle: saline): 113 % of control
T/C (endpoint: mean survival time, dose: 200.0 mg/kg/injection, schedule: Q01DX001 (ip), vehicle: saline): 96 % of control
T/C (endpoint: mean survival time, dose: 267.0 mg/kg/injection, schedule: Q01DX009 (ip), vehicle: saline): 113 % of control
T/C (endpoint: mean survival time, dose: 400.0 mg/kg/injection, schedule: Q01DX001 (ip), vehicle: saline): 112 % of control
T/C [1]: 154 % of control

CC[C@H]1CN2CCc3cc(OC)c(OC)cc3[C@@H]2C[C@@H]1C[C@H]1NCCc2c1[nH]c1ccc(OC)cc21
T/C (endpoint: mean survival time, dose: 0.5 mg/kg/injection, schedule: Q01DX009 (ip), vehicle: saline): 103 % of control
T/C (endpoint: mean survival time, dose: 1.0 mg/kg/injection, schedule: Q01DX009 (ip), vehicle: saline): 105 % of control
T/C (endpoint: mean survival time, dose: 2.0 mg/kg/injection, schedule: Q01DX005 (ip), vehicle: saline): 113 % of control
T/C (endpoint: mean survival time, dose: 2.0 mg/kg/injection, schedule: Q01DX009 (ip), vehicle: saline): 107 % of control
T/C (endpoint: mean survival time, dose: 2.0 mg/kg/injection, schedule: Q04DX003 (ip), vehicle: saline): 115 % of control
T/C (endpoint: mean survival time, dose: 4.0 mg/kg/injection, schedule: Q01DX005 (ip), vehicle: saline): 117 % of control
T/C (endpoint: mean survival time, dose: 4.0 mg/kg/injection, schedule: Q01DX009 (ip), vehicle: saline): 114 % of control
T/C (endpoint: mean survival time, dose: 4.0 mg/kg/injection, schedule: Q04DX003 (ip), vehicle: saline): 123 % of control
T/C (endpoint: mean survival time, dose: 8.0 mg/kg/injection, schedule: Q04DX003 (ip), vehicle: saline): 109 % of control
T/C (endpoint: mean survival time, dose: 16.0 mg/kg/injection, schedule: Q01DX009 (ip), vehicle: saline): 117 % of control
T/C (endpoint: mean survival time, dose: 16.0 mg/kg/injection, schedule: Q04DX003 (ip), vehicle: saline): 124 % of control
T/C (endpoint: mean survival time, dose: 32.0 mg/kg/injection, schedule: Q04DX003 (ip), vehicle: saline): 152 % of control
T/C (endpoint: median survival time, dose: 4.0 mg/kg/injection, schedule: Q04DX003 (ip), vehicle: saline + alcohol): 101 % of control
T/C (endpoint: median survival time, dose: 8.0 mg/kg/injection, schedule: Q04DX003 (ip), vehicle: saline + alcohol): 104 % of control
T/C (endpoint: median survival time, dose: 16.0 mg/kg/injection, schedule: Q04DX003 (ip), vehicle: saline + alcohol): 117 % of control
T/C (endpoint: median survival time, dose: 64.0 mg/kg/injection, schedule: Q04DX003 (ip), vehicle: saline + alcohol): 86 % of control

CC(=O)Nc1ccc(SC(=O)c2ccc(C(Cl)(Cl)Cl)cc2)cc1
T/C [2]: 101 % of control
T/C [3]: 98 % of control
T/C [4]: 93 % of control

CNC(=O)Oc1ccc(NC(=O)OC)cc1
T/C [2]: 93 % of control
T/C [3]: 87 % of control

CC1CCCC(C)[N+]1=C(Nc1cccc(Cl)c1)c1ccccc1 (centres undefined)
T/C (endpoint: mean survival time, dose: 100.0 mg/kg/injection, schedule: Q04DX002 (ip), vehicle: Klucel (hydroxypropylcellulose) (HPC)): 97 % of control
T/C (endpoint: mean survival time, dose: 200.0 mg/kg/injection, schedule: Q04DX002 (ip), vehicle: Klucel (hydroxypropylcellulose) (HPC)): 106 % of control
T/C (endpoint: mean survival time, dose: 400.0 mg/kg/injection, schedule: Q04DX002 (ip), vehicle: Klucel (hydroxypropylcellulose) (HPC)): 101 % of control

Cn1nc(N)c2ncc(C(Cl)(Cl)Cl)nc21
T/C (endpoint: mean survival time, dose: 25.0 mg/kg/injection, schedule: Q01DX009 (ip), vehicle: saline with Tween-80): 108 % of control
T/C (endpoint: mean survival time, dose: 50.0 mg/kg/injection, schedule: Q01DX009 (ip), vehicle: saline with Tween-80): 111 % of control

COc1ccc(OC(=O)Nc2cc(C)ccc2C)cc1
T/C [5]: 91 % of control
T/C [6]: 94 % of control
T/C [7]: 90 % of control
T/C [8]: 97 % of control
T/C [9]: 108 % of control

N#CCCP(=S)(c1ccccc1)c1ccccc1
T/C (endpoint: mean survival time, dose: 100.0 mg/kg/injection, schedule: Q01DX001 (ip), vehicle: other): 104 % of control
T/C (endpoint: mean survival time, dose: 100.0 mg/kg/injection, schedule: Q04DX003 (ip), vehicle: other): 102 % of control
T/C (endpoint: mean survival time, dose: 200.0 mg/kg/injection, schedule: Q01DX001 (ip), vehicle: other): 98 % of control
T/C (endpoint: mean survival time, dose: 200.0 mg/kg/injection, schedule: Q04DX003 (ip), vehicle: other): 96 % of control
T/C (endpoint: mean survival time, dose: 400.0 mg/kg/injection, schedule: Q01DX001 (ip), vehicle: other): 102 % of control
T/C (endpoint: mean survival time, dose: 400.0 mg/kg/injection, schedule: Q04DX003 (ip), vehicle: other): 90 % of control

CC(C)(C)NC(N)=O
T/C (endpoint: mean survival time, dose: 100.0 mg/kg/injection, schedule: Q01DX009 (ip), vehicle: saline): 100 % of control
T/C (endpoint: mean survival time, dose: 200.0 mg/kg/injection, schedule: Q01DX009 (ip), vehicle: saline): 97 % of control
T/C [1]: 100 % of control

Nc1n[nH]c(=S)s1
T/C (endpoint: mean survival time, dose: 46.0 mg/kg/injection, schedule: Q03HX032 (ip), vehicle: Klucel (hydroxypropylcellulose) (HPC)): 102 % of control
T/C (endpoint: mean survival time, dose: 70.0 mg/kg/injection, schedule: Q03HX032 (ip), vehicle: Klucel (hydroxypropylcellulose) (HPC)): 105 % of control
T/C [5]: 95 % of control
T/C (endpoint: mean survival time, dose: 105.0 mg/kg/injection, schedule: Q03HX032 (ip), vehicle: Klucel (hydroxypropylcellulose) (HPC)): 108 % of control
T/C (endpoint: mean survival time, dose: 158.0 mg/kg/injection, schedule: Q03HX032 (ip), vehicle: Klucel (hydroxypropylcellulose) (HPC)): 106 % of control
T/C (endpoint: mean survival time, dose: 183.0 mg/kg/injection, schedule: Q01DX015 (ip), vehicle: Klucel (hydroxypropylcellulose) (HPC)): 108 % of control
T/C [7]: 117 % of control
T/C (endpoint: mean survival time, dose: 236.0 mg/kg/injection, schedule: Q03HX032 (ip), vehicle: Klucel (hydroxypropylcellulose) (HPC)): 114 % of control
T/C (endpoint: mean survival time, dose: 264.0 mg/kg/injection, schedule: Q01DX015 (ip), vehicle: Klucel (hydroxypropylcellulose) (HPC)): 115 % of control
T/C (endpoint: mean survival time, dose: 394.0 mg/kg/injection, schedule: Q01DX015 (ip), vehicle: Klucel (hydroxypropylcellulose) (HPC)): 116 % of control
T/C (endpoint: mean survival time, dose: 440.0 mg/kg/injection, schedule: Q01DX001 (ip), vehicle: Klucel (hydroxypropylcellulose) (HPC)): 101 % of control
T/C (endpoint: mean survival time, dose: 670.0 mg/kg/injection, schedule: Q01DX001 (ip), vehicle: Klucel (hydroxypropylcellulose) (HPC)): 94 % of control

CN1CCC(OC(=O)N(c2ccccc2)c2ccccc2)CC1
T/C [10]: 99 % of control
T/C (endpoint: mean survival time, dose: 200.0 mg/kg/injection, schedule: Q01DX001 (ip), vehicle: saline with Tween-80): 105 % of control

CNCCc1cc2c(c(OC)c1/C=C/C(=O)/C=C/c1c(CCNC)cc3c(c1OC)OCO3)OCO2
T/C (endpoint: mean survival time, dose: 75.0 mg/kg/injection, schedule: Q01DX001 (ip), vehicle: carboxymethylcellulose (CMC)): 100 % of control
T/C (endpoint: mean survival time, dose: 150.0 mg/kg/injection, schedule: Q01DX001 (ip), vehicle: carboxymethylcellulose (CMC)): 100 % of control

O=C1CCCC(c2ccccc2)C1 (centres undefined)
T/C (endpoint: mean survival time, dose: 75.0 mg/kg/injection, schedule: Q01DX001 (ip), vehicle: other): 95 % of control
T/C (endpoint: mean survival time, dose: 150.0 mg/kg/injection, schedule: Q01DX001 (ip), vehicle: other): 92 % of control
T/C (endpoint: mean survival time, dose: 300.0 mg/kg/injection, schedule: Q01DX001 (ip), vehicle: other): 95 % of control

CCC(C)(C)NC1=C(Cl)C(=O)c2ccccc2C1=O
T/C (endpoint: mean survival time, dose: 6.25 mg/kg/injection, schedule: Q01DX001 (ip), vehicle: saline with Tween-80): 95 % of control
T/C (endpoint: mean survival time, dose: 12.5 mg/kg/injection, schedule: Q01DX001 (ip), vehicle: saline with Tween-80): 106 % of control

CCN(CC)S(=O)(=O)/C=C\c1ccccc1
T/C (endpoint: mean survival time, dose: 50.0 mg/kg/injection, schedule: Q04DX003 (ip), vehicle: Klucel (hydroxypropylcellulose) (HPC)): 96 % of control
T/C (endpoint: mean survival time, dose: 100.0 mg/kg/injection, schedule: Q01DX001 (ip), vehicle: Klucel (hydroxypropylcellulose) (HPC)): 98 % of control
T/C [6]: 107 % of control
T/C (endpoint: mean survival time, dose: 200.0 mg/kg/injection, schedule: Q01DX001 (ip), vehicle: Klucel (hydroxypropylcellulose) (HPC)): 107 % of control
T/C [8]: 102 % of control
T/C (endpoint: mean survival time, dose: 400.0 mg/kg/injection, schedule: Q01DX001 (ip), vehicle: Klucel (hydroxypropylcellulose) (HPC)): 102 % of control
T/C [9]: 104 % of control

CN(C)c1nc(N)c(N)c(N)n1
T/C (endpoint: mean survival time, dose: 25.0 mg/kg/injection, schedule: Q01DX001 (ip), vehicle: saline with Tween-80): 101 % of control
T/C (endpoint: mean survival time, dose: 50.0 mg/kg/injection, schedule: Q01DX001 (ip), vehicle: saline with Tween-80): 107 % of control
T/C [10]: 96 % of control and 97 % of control

CSCCSc1ncnc2nc[nH]c12
T/C [2]: 107 % of control
T/C [3]: 102 % of control
T/C [4]: 101 % of control

Clc1ccc(Cl)c(/C=C/c2ccc(Cl)c(Cl)c2)c1
T/C (endpoint: mean survival time, dose: 1.56 mg/kg/injection, schedule: Q01DX009 (ip), vehicle: Klucel (hydroxypropylcellulose) (HPC)): 97 % of control
T/C (endpoint: mean survival time, dose: 3.12 mg/kg/injection, schedule: Q01DX009 (ip), vehicle: Klucel (hydroxypropylcellulose) (HPC)): 95 % of control
T/C (endpoint: mean survival time, dose: 6.25 mg/kg/injection, schedule: Q01DX009 (ip), vehicle: Klucel (hydroxypropylcellulose) (HPC)): 92 % of control and 100 % of control
T/C [6]: 97 % of control
